This data set concerns human (tumor) Hif2α (EPAS1) mRNA. In words: Hif2α knockdown in orthotopic RCC tumor bearing mice, single injection of RNAi trigger-delivery polymer conjugate, RT-qPCR (Table 7). In kind it is in vivo. As to conditions: single tail vein injection, relative to isotonic glucose. An outline of the steps:
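Female athymic nude mice carried orthotopic A498-SEAP ccRCC kidney tumours, used 5–6 weeks after implantation. They received one tail-vein injection of RGD-targeted Hif2α RNAi trigger–polymer conjugate or isotonic glucose. Tumour Hif2α mRNA was measured by TaqMan RT-qPCR normalised to CycA (ΔΔCT) and expressed relative to glucose-treated mice.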
(In general: Quantitative PCR measures a nucleic acid by following its amplification.)

The mark [1] stands for this setting: RNAi trigger 50 μg, polymer 064 125 μg.
Where [2] appears, read: RNAi trigger 80 μg, polymer 126 400 μg.

“AD03260 (antisense AUUCAUGAAAUCGUUACGUUG; sense ACGUAACGAUUUCAUGAATT; Hif2alpha RNAi agent antisense strand; modified_base 2,8,10,14 /mod_base = “2′-deoxy-2′-fluoro corresponding nucleoside”; modified_base 1,3,4,5,6,7,9,11,12,13,15,16,17,18,19,20,21 /mod_base = “2′-O-methyl corresponding nucleoside”; modified_base 2,3,20,21 /mod_base = “5′-phosphorothioate corresponding nucleotide”; Hif2alpha RNAi agent sense strand; modified_base 7,8,9 /mod_base = “2′-deoxy-2′-fluoro corresponding nucleoside”; modified_base 1,2,3,4,5,6,10,11,12,13,14,15,16,17 /mod_base = “2′-O-methyl corresponding nucleoside”; modified_base 20 /mod_base = “3′-3′-linked nucleotide”; modified_b)”: under setting [1], the “Relative Expression day 4 (Hif2α mRNA in kidney tumor)” value came to 0.175.

For the substance “AD01257 (antisense TUUCAUGAAAUCGUUACGUTT; sense ACGUAACGAUUUCAUGAAAT; Hif2alpha RNAi agent antisense strand; modified_base 2,4,6,8,10,12,14,16,18 /mod_base = “2′-deoxy-2′-fluoro corresponding nucleoside”; modified_base 3,5,7,11,13,15,17,19 /mod_base = “2′-O-methyl corresponding nucleoside”; modified_base 9 /mod_base = “2′-3′ seco corresponding nucleotide”; modified_base 21 /mod_base = “5′-phosphorothioate corresponding nucleotide”; Hif2alpha RNAi agent sense strand; modified_base 1,3,5,7,9,11,13,15,17,19 /mod_base = “2′-deoxy-2′-fluoro corresponding nucleoside”; modified_base 2,4,6,8,10,12,14,16,18 /mod_base = “2′-O-methyl corresponding nucleoside”; modified_b)”, the “Relative Expression day 4 (Hif2α mRNA in kidney tumor)” value under setting [2] was 0.24.

For “AD01288 (antisense TUUCAUGAAAUCGUUACGUTT; sense ACGUAACGAUUUCAUGAAAT; Hif2alpha RNAi agent antisense strand; modified_base 2,4,6,8,10,14,16,18 /mod_base = “2′-deoxy-2′-fluoro corresponding nucleoside”; modified_base 3,5,7,9,11,12,13,15,17,19 /mod_base = “2′-O-methyl corresponding nucleoside”; modified_base 21 /mod_base = “5′-phosphorothioate corresponding nucleotide”; Hif2alpha RNAi agent sense strand; modified_base 1,3,5,7,8,9,11,13,15,17,19 /mod_base = “2′-deoxy-2′-fluoro corresponding nucleoside”; modified_base 2,4,6,10,12,14,16,18 /mod_base = “2′-O-methyl corresponding nucleoside”; modified_base 20 /mod_base = “3′-3′-linked nucleotide”; modified_base 1 /mo)”, the “Relative Expression day 4 (Hif2α mRNA in kidney tumor)” value (RNAi trigger 115 μg, polymer 100A 375 μg) is 0.32.

With “AD02874 (antisense UUUCAUGAAAUCGUUACGUUG; sense UAUACGUAACGAUUUCAUGAAAT; Hif2alpha RNAi agent antisense strand; modified_base 2,4,6,8,10,14,16,18 /mod_base = “2′-deoxy-2′-fluoro corresponding nucleoside”; modified_base 1,3,5,7,9,11,12,13,15,17,19,20,21 /mod_base = “2′-O-methyl corresponding nucleoside”; modified_base 2,3,20,21 /mod_base = “5′-phosphorothioate corresponding nucleotide”; Hif2alpha RNAi agent sense strand; modified_base 2 modified base = “2′-hydroxy corresponding nucleoside”; modified_base 10,11,12,16 /mod_base = “2′-deoxy-2′-fluoro corresponding nucleoside”; modified_base 1,3,4,5,6,7,8,9,13,14,15,17,18,19,20,21,22 /mod_base = “2′-O-methyl correspon)”, under setting [1], the “Relative Expression day 4 (Hif2α mRNA in kidney tumor)” value amounted to 0.138.

With “AD02735 (antisense AUUCAUGAAAUCGUUACGUUG; sense ACGUAACGAUUUCAUGAAUT; Hif2alpha RNAi agent antisense strand; modified_base 2,4,6,8,10,14,16,18 /mod_base = “2′-deoxy-2′-fluoro corresponding nucleoside”; modified_base 1,3,5,7,9,11,12,13,15,17,19,20,21 /mod_base = “2′-O-methyl corresponding nucleoside”; modified_base 2,3,20,21 /mod_base = “5′-phosphorothioate corresponding nucleotide”; Hif2alpha RNAi agent sense strand; modified_base 3,5,7,8,9,13,15,17 /mod_base = “2′-deoxy-2′-fluoro corresponding nucleoside”; modified_base 1,2,4,6,10,11,12,14,16,18,19 /mod_base = “2′-O-methyl corresponding nucleoside”; modified_base 20 /mod_base = “3′-3′-linked nucleotide”; modi)”, the “Relative Expression day 4 (Hif2α mRNA in kidney tumor)” value under setting [1] amounted to 0.144.

In the case of “AD03262 (antisense AUUCAUGAAAUCGUUACGUUG; sense ACGUAACGAUUUCAUGAAUT; Hif2alpha RNAi agent antisense strand; modified_base 2,8,10,14 /mod_base = “2′-deoxy-2′-fluoro corresponding nucleoside”; modified_base 1,3,4,5,6,7,9,11,12,13,15,16,17,18,19,20,21 /mod_base = “2′-O-methyl corresponding nucleoside”; modified_base 2,3,20,21 /mod_base = “5′-phosphorothioate corresponding nucleotide”; Hif2alpha RNAi agent sense strand; modified_base 7,8,9 /mod_base = “2′-deoxy-2′-fluoro corresponding nucleoside”; modified_base 1,2,3,4,5,6,10,11,12,13,14,15,16,17,18,19 /mod_base = “2′-O-methyl corresponding nucleoside”; modified_base 20 /mod_base = “3′-3′-linked nucleotide”; modi)”, the “Relative Expression day 4 (Hif2α mRNA in kidney tumor)” value under setting [1] was 0.197.

In the case of “AD03266 (antisense UUUCAUGAAAUCGUUACGUUG; sense ACGUAACGAUUUCAUGAAAT; Hif2alpha RNAi agent antisense strand; modified_base 2,4,6,8,14 /mod_base = “2′-deoxy-2′-fluoro corresponding nucleoside”; modified_base 1,3,5,7,9,10,11,12,13,15,16,17,18,19,20,21 /mod_base = “2′-O-methyl corresponding nucleoside”; modified_base 2,3,20,21 /mod_base = “5′-phosphorothioate corresponding nucleotide”; Hif2alpha RNAi agent sense strand; modified_base 7,8,9 /mod_base = “2′-deoxy-2′-fluoro corresponding nucleoside”; modified_base 1,2,3,4,5,6,10,11,12,13,14,15,16,17,18,19 /mod_base = “2′-O-methyl corresponding nucleoside”; modified_base 20 /mod_base = “3′-3′-linked nucleotide”; modi)”, the “Relative Expression day 4 (Hif2α mRNA in kidney tumor)” value under setting [1] is recorded as 0.408.

On to “AD01294 (antisense TUUCAUGAAAUCGUUACGUCGGCUGU; sense UAUAUCGACGUAACGAUUUCAUGAAA; Hif2alpha RNAi agent antisense strand; modified_base 25 modified base = “2′-hydroxy corresponding nucleoside”; modified_base 2,4,6,8,10,14,16,18,20 /mod_base = “2′-deoxy-2′-fluoro corresponding nucleoside”; modified_base 3,5,7,9,11,12,13,15,17,19,21,22,23,24,26 /mod_base = “2′-O-methyl corresponding nucleoside”; modified_base 2,3,23,24 /mod_base = “5′-phosphorothioate corresponding nucleotide”; Hif2alpha RNAi agent sense strand; modified_base 2,4 modified base = “2′-hydroxy corresponding nucleoside”; modified_base 6,8,10,12,14,15,16,18,20,22,24,26 /mod_base = “2′-deoxy-2′-fluoro correspondin)”, for which the “Relative Expression day 4 (Hif2α mRNA in kidney tumor)” value under setting [2] was 0.17.

Take “AD01021 (antisense TGUAAAACAAUUGUGUACUTT; sense AGUACACAAUUGUUUUACAT; Hif2alpha RNAi agent antisense strand; modified_base 2,4,6,8,10,12,14,16,18 /mod_base = “2′-deoxy-2′-fluoro corresponding nucleoside”; modified_base 3,5,9,11,13,15,17,19 /mod_base = “2′-O-methyl corresponding nucleoside”; modified_base 7 /mod_base = “2′-3′ seco corresponding nucleotide”; modified_base 21 /mod_base = “5′-phosphorothioate corresponding nucleotide”; Hif2alpha RNAi agent sense strand; modified_base 1,3,5,7,9,11,13,15,17,19 /mod_base = “2′-deoxy-2′-fluoro corresponding nucleoside”; modified_base 2,4,6,8,10,12,14,16,18 /mod_base = “2′-O-methyl corresponding nucleoside”; modified_b)”: the “Relative Expression day 4 (Hif2α mRNA in kidney tumor)” value under setting [2] was 0.90.

The record behind these values is patent US9976141B2, “Compositions and methods for inhibiting gene expression of Hif2alpha” (Arrowhead Madison Inc., priority 2015, dated 2018).
